This is an account of results in patent US7439362B2, “Piperazinyl-or piperidinylamine-sulfamic acid amides as inhibitors of steroid sulfatase” (Novartis AG, priority 2002, dated 2008).

Data set [1] concerns the target T1, steroid sulfatase in human skin homogenate (Homo sapiens, UniProt P08842).
T1 construct: Frozen specimens of human cadaver skin; from tissue; host or cells: human cadaver skin, minced and suspended in Triton X-100 buffer
T1 sequence (P08842 22-583): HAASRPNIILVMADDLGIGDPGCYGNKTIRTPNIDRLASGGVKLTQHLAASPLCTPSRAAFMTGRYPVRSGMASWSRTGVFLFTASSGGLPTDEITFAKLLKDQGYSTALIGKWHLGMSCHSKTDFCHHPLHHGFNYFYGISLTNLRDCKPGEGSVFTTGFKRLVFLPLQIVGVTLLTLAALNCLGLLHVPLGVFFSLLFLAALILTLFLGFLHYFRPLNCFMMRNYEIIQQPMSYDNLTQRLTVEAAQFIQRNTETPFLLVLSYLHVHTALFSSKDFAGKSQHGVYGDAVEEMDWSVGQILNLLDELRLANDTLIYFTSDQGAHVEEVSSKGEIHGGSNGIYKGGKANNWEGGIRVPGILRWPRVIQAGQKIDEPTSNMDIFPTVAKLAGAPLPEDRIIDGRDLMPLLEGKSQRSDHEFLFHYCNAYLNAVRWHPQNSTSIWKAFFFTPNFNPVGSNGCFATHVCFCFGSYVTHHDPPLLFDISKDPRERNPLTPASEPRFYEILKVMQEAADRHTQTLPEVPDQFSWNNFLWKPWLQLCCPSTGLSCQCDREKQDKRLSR
Briefly: Assay Using Human Skin Homogenate ([3H]DHEAS cleavage). The data set is classed as biochemical. Particulars: human cadaver skin homogenate; DHEAS substrate; 18 hrs at 37° C. On the procedure:
Frozen specimens of human cadaver skin (about 100 mg per sample) are minced Into small pieces (about 1×1 mm) using sharp scissors. The pieces obtained are suspended in ten volumes (w/w) of buffer (20 mM Tris-HCl, pH 7.5), containing 0.1% Triton X-100. Test compounds (e.g. compounds of the present invention) are added at graded concentrations from stock solutions In ethanol or DMSO. Second, DHEAS as the substrate is added (1 μC/ml [^3H]DHEAS, specific activity: about 60 Ci/mmol, and 20 μM unlabeled DHEAS).
Samples are incubated for 18 hrs at 37° C. At the end of the Incubation period, 50 μl of 1 M Tris, pH 10.4 and 3 ml of toluene are added. A 1-ml aliquot of the organic phase is removed and subjected to liquid scintillation counting. The determined dpm-values in the aliquots are converted to nmol of DHEA cleaved per g of skin per hour.

For data set [2], the target named is T2, purified human steroid sulfatase (Homo sapiens, UniProt P08842).
T2 construct: Human placenta is obtained freshly after delivery; from tissue; host or cells: human placenta (microsomes, Triton X-100 extract, chromatographically purified)
T2 sequence (P08842 22-583): T1 sequence (P08842 22-583)
The data set can be described thus: Assay of Human Steroid Sulfatase (4-methylumbelliferyl sulfate cleavage, fluorescence). The settings on record: purified human placental enzyme; 4-methylumbelliferyl sulfate substrate; 37° C., 1 hour. Type of data set: biochemical. As to the method:
Human placenta is obtained freshly after delivery and stripped of membranes and connective tissues. For storage, the material is frozen at −70° C. After thawing, all further steps are carried out at 4° C., while pH values are adjusted at 20° C. 400 g of the tissue is homogenized in 1.2 l of buffer A (50 mM Tris-HCl, pH 7.4, 0.25 M sucrose). The homogenate obtained is centrifuged at 10,000×g for 45 minutes. The supernatant is set aside and the pellet obtained is re-homogenized in 500 ml of buffer A. After centrifugation, the two supernatants obtained are combined and subjected to ultracentrifugation (100,000×g, 1 hour). The pellet obtained is resuspended in buffer A and centrifugation is repeated. The pellet obtained is suspended in 50 ml of 50 mM Tris-HCl, pH 7.4 and stored at −20° C. until further work-up. […]
It is known that purified human steroid sulfatase not only is capable to cleave steroid sulfates, but also readily cleaves aryl sulfates such as 4-methylumbelliferyl sulfate which is used in the present test system as an activity indicator. […]
Plates are incubated at 37° C. for 1 hour. […] Fluorescence intensity is determined in a Titertek Fluoroskan. […]
[formula] wherein I100 is the intensity observed in the absence of inhibitor and s is a slope factor. Estrone sulfamate is used as a reference compound and its IC50 value is determined in parallel to all other test compounds. […]

Usually melting point stands for the temperature of the solid-liquid transition. As usually defined, the IC50 is the concentration needed to halve the response being measured. `NC(=O)c1ccc(C(F)(F)F)cc1N1CCC(NS(=O)(=O)NC(=O)c2cc(C(F)(F)F)cc(C(F)(F)F)c2)CC1` [Example 1, N-[[4-[1-(2-Aminocarbonyl-5-trifluoromethyl-phenyl)]-piperidinyl]-amino]-sulfonyl-3,5-bis-trifluoromethyl-benzamide] displayed a melting point of 192 to 195 °C. This compound also showed an IC50 in data set [1] of 30 to 270 nM.

Consider `CC12CCC3c4ccc(OS(N)(=O)=O)cc4CCC3C1CCC2=O` (stereo not drawn) [estrone sulfamate], for which the IC50 in data set [2] was roughly 60 nM.
